Source: patent publication US12297210B2, “Naphthyridine compounds and uses thereof” (Genentech, Inc., priority 2018, dated 2025)
Each block holds one compound with its values, some of them ahead of it.

Experiments:
[1] = molecular target: T1, HPK full length, T165E S171E (Homo sapiens, UniProt Q92918, S171E/T165E); assay: HPK1-FL HTRF Enzymatic Assay ("HTRF"); format: biochemical; conditions: ATP 1 mM, read-out: HPK1 Ki (nM) H = HTRF
T1 construct: HPK full length, T165E S171E: 0.125 nM
Protocol: Example B1: HPK1-FL HTRF Enzymatic Assay (“HTRF”)
HPK-FL enzyme phosphorylates Biotin-SLP-76 substrate in the presence of ATP at 1 mM and varying concentrations of test compound. Product is detected by FRET using Eu-anti-pSLP76 Ab and SA-XL665. Also see www.cisbio.com/HTRF for additional HTRF technology information.
• Echo555 compound dispenser • Agilent Bravo • Perkin Elmer Envision Final Assay Conditions: • HPK full length, T165E S171E: 0.125 nM • Biotin-SLP76: 100 nM • ATP: 1 mM (ATP Km=20 μM) • Eu-anti-pSLP76: 2 nM • SA-XL665: 8.3 nM • Preincubation time: 30 min • Kinase reaction time: 60 min • Temperature: ambient • Total volume: 12 μl • ATP^app Km: 17.7 μM Materials: • Assay plate: White ProxiPlate 384 F (PerkinElmer cat #6008289) • Kinase: HPK full length double mutant • Substrate: Biotin-SLP76 • ATP: 100 mM ATP • BSG: 2% BSG • DMSO: DMSO(Sigma cat #34869-100ML) • Reaction Buffer: H2O/50 mM HEPES, pH 7.5/10 mM MgCl2/2 mM TCEP/0.01% Brij-35/0.01% BSG • Detection mix: Eu-anti-pSLP76/SA-XL665 (Cisbio, #610SAXAC) Assay Procedure Ki Determination:
To a 384 well Proxiplate with 80 nL compound or DMSO spotted on was added 4 μl/well kinase mix. The mixture was preincubated for 30 minutes and then 4 μl/well substrate mix was added. The solution was incubated for 60 min and then 4 μl/well detection mix was added. The solution was incubated for another 60 min. The plates were then loaded onto a Perkin Elmer Envision and the TR-FRET signal was measured at 615 and 665 nm. A ratio of […] was used to calculate the % activity at each concentration of compound.

HPK1 = molecular target: T2, HPK1 (Homo sapiens, UniProt Q92918); assay: HPK1 Lantha Binding Assay ("Lanth"); conditions: 15 nM Tracer222, read-out: HPK1 Ki (nM) L = Lanth
T2 construct: purchased Signalchem M23-11G
T2 sequence (Q92918 1-346 limits assumed): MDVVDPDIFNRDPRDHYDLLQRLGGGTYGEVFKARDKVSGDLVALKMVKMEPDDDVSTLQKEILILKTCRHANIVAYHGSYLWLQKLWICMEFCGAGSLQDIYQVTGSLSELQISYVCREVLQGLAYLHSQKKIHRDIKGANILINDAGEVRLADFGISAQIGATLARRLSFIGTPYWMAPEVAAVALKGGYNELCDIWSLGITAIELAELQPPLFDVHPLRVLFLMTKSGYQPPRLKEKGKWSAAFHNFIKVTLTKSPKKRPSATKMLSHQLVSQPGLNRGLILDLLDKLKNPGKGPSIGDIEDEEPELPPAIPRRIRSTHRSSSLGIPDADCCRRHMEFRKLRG
Protocol: Example B2: HPK1 Lantha Binding Assay (“Lanth”)
The compounds to be tested were diluted by preparing 12.5 uL/well of 5 mM compound (100×) in columns 2 and 13 and 10 ul/well of DMSO in columns 3-12, 14-23, and wells A1-H1 and I24-P24 of the compound plate using a Bravo liquid handling platform. For the reference compound, the top concentration was 1 mM. To the plate was added 10 ul 2 mM staurosporine in wells J1-P1 and A24-H24. A 11 point 5-fold compound serial dilution was performed using the Bravo liquid handling platform. From the plate were transferred 2.5 ul of the solutions from column 2 and column 13 to the 10 ul of DMSO in columns 3 and 14 & so on. The compound plate was centrifuged at 2500 rpm for 1 min. From the compound plate was transferred 80 nl of the compounds into an assay plate using the Echo liquid handler system. One compound plate makes two assay plates. Each assay plate is sealed and stored in an N2 cabinet.
The following assay concentrations and times were used: 2 nM HPK1, 2 nM Eu-Anti-GST Ab, and 15 nM Tracer222, with 60 min incubation time.
For the binding assay, 4 ul 2×HPK1 and Eu-anti-GST antibody were added to each well of the assay plate using a Multidrop reagent dispenser. The solutions were incubated in a 23 C incubator for 1 h. To each well of the assay plate was added 4 ul 2×Tracer-222 using a Multidrop reagent dispenser. The solutions were again incubated in a 23 C incubator for 1 h. The results of the assay were read using an Envision plate reader with the following parameters: TR_FRET, 340ex/615 and 665em; 100 usec Delay; and 200 usec integration.
Compound Ki was analyzed using Morrison ki fit model in XL-fit • a. fit=(1−((((E+x)+(Ki*(1+(S/Kd))))−(((((E+x)+(Ki*(1+(S/Kd))))^2)−((4*E)*x))^0.5))/(2*E))) • res=(y-fit) • b. Parameters: • E=enzyme concentration • S=Tracer222 concentration, Kd=Tracer222 Kd • All measurements reported using the same units (uM)

T1 sequence (Q92918 whole entry T165E/S171E): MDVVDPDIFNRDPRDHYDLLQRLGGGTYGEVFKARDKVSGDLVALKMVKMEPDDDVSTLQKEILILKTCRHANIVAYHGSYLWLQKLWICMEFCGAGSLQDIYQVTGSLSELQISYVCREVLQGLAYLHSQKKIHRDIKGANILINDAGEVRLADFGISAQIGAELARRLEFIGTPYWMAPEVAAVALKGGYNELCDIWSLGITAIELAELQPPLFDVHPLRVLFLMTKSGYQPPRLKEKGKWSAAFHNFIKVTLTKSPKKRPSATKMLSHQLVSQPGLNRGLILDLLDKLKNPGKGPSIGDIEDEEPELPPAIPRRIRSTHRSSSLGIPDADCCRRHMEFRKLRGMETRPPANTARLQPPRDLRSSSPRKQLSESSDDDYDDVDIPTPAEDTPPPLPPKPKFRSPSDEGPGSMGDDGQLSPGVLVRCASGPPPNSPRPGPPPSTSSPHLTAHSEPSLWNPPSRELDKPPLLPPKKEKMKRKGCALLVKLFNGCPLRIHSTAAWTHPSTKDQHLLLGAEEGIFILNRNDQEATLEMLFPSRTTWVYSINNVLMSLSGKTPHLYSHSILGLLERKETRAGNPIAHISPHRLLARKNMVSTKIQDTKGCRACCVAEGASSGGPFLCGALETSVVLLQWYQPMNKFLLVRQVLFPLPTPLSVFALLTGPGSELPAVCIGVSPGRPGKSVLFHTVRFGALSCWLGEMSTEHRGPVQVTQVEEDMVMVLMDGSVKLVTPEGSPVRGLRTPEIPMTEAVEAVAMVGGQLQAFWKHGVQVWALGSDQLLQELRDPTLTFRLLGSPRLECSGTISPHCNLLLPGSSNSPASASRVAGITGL

SMILES: Cc1c(N)cncc1-c1cc2cc(Nc3cc4n(n3)CC(=O)N(CC(F)F)CC4)ncc2cn1 [Compound 102, 2-((6-(5-amino-4-methylpyridin-3-yl)-2,7-naphthyridin-3-yl)amino)-6-(2,2-difluoroethyl)-5,6-dihydro-4H-pyrazolo[1,5-d][1,4]diazepin-7(8H)-one]
Ki [1]: 4 nM

SMILES: Cc1c(-c2cc3cc(Nc4cc5n(n4)CC(=O)N(C(C)C)CC5)ncc3cn2)cnc2c1NCCO2 [Compound 103, 6-isopropyl-2-((6-(8-methyl-2,3-dihydro-1H-pyrido[2,3-b][1,4]oxazin-7-yl)-2,7-naphthyridin-3-yl)amino)-5,6-dihydro-4H-pyrazolo[1,5-d][1,4]diazepin-7(8H)-one]
Ki (HPK1): 0.39 nM

SMILES: CNCc1cc(C)c(-c2cc3cc(Nc4cc5n(n4)CC(=O)N(C)CC5)ncc3cn2)c(F)c1 [Compound 110, 2-((6-(2-fluoro-6-methyl-4-((methylamino)methyl)phenyl)-2,7-naphthyridin-3-yl)amino)-6-methyl-5,6-dihydro-4H-pyrazolo[1,5-d][1,4]diazepin-7(8H)-one]
Ki [1]: 13 nM

SMILES: Cc1ccncc1-c1cc2cc(Nc3cc(C(=O)N(C)C)c(N)cn3)ncc2cn1 [Compound 201, 5-amino-N,N-dimethyl-2-((6-(4-methylpyridin-3-yl)-2,7-naphthyridin-3-yl)amino)isonicotinamide]
Ki [1]: 463 nM

SMILES: Cc1ccncc1-c1cc2cc(Nc3ccc(S(C)(=O)=O)cn3)ncc2cn1 [Compound 202, 6-(4-methylpyridin-3-yl)-N-(5-(methylsulfonyl)pyridin-2-yl)-2,7-naphthyridin-3-amine]
Ki [1]: 291 nM

SMILES: Cc1ccncc1-c1cc2cc(Nc3ccc(C(=O)N(C)C)cn3)ncc2cn1 [Compound 204, N,N-dimethyl-6-((6-(4-methylpyridin-3-yl)-2,7-naphthyridin-3-yl)amino)nicotinamide]
Ki (HPK1): 24 nM

SMILES: Cc1ccncc1-c1cc2cc(Nc3ccc(CO)cn3)ncc2cn1 [Compound 206, (6-((6-(4-methylpyridin-3-yl)-2,7-naphthyridin-3-yl)amino)pyridin-3-yl)methanol]
Ki [1]: 577 nM

SMILES: CNS(=O)(=O)c1ccc(Nc2cc3cc(-c4cnccc4C)ncc3cn2)nc1 [Compound 207, N-methyl-6-((6-(4-methylpyridin-3-yl)-2,7-naphthyridin-3-yl)amino)pyridine-3-sulfonamide]
Ki (HPK1): 11 nM

SMILES: Cc1ccncc1-c1cc2cc(Nc3ccc(CCO)cn3)ncc2cn1 [Compound 208, 2-(6-((6-(4-methylpyridin-3-yl)-2,7-naphthyridin-3-yl)amino)pyridin-3-yl)ethan-1-ol]
Ki (HPK1): 28 nM

SMILES: Cc1cc(Nc2cc3cc(C4CC4)ncc3cn2)ncn1 [Compound 209, 6-cyclopropyl-N-(6-methylpyrimidin-4-yl)-2,7-naphthyridin-3-amine]
Ki [1]: > 2000 nM

SMILES: Cc1cc(Nc2cc3cc(-c4cnccc4C)ncc3cn2)nc(N)n1 [Compound 210, 6-methyl-N^4-(6-(4-methylpyridin-3-yl)-2,7-naphthyridin-3-yl)pyrimidine-2,4-diamine]
Ki (HPK1): 3.9 nM

Further compounds by falling Ki [1], results first:

Ki [1]: 2.5 nM
SMILES: Cc1c(N)cncc1-c1cc2cc(Nc3cc4n(n3)CC(=O)N(C(C)C)CC4)ncc2c(C)n1 [Compound 106, 2-((6-(5-amino-4-methylpyridin-3-yl)-8-methyl-2,7-naphthyridin-3-yl)amino)-6-isopropyl-5,6-dihydro-4H-pyrazolo[1,5-d][1,4]diazepin-7(8H)-one]

Ki [1]: 2.3 nM
SMILES: Cc1c(N)cncc1-c1cc2cc(Nc3cc4n(n3)CC(=O)N(C(C)C)CC4)ncc2cn1 [Compound 104, 2-((6-(5-amino-4-methylpyridin-3-yl)-2,7-naphthyridin-3-yl)amino)-6-isopropyl-5,6-dihydro-4H-pyrazolo[1,5-d][1,4]diazepin-7(8H)-one]

Ki [1]: 2.1 nM
SMILES: COc1nc(-c2cnc3c(c2C)NCCO3)cc2cc(Nc3cc4n(n3)CC(=O)N(C)CC4)ncc12 [Compound 107, 2-((8-methoxy-6-(8-methyl-2,3-dihydro-1H-pyrido[2,3-b][1,4]oxazin-7-yl)-2,7-naphthyridin-3-yl)amino)-6-methyl-5,6-dihydro-4H-pyrazolo[1,5-d][1,4]diazepin-7(8H)-one]

Ki [1]: 0.85 nM
SMILES: Cc1c(N)cncc1-c1cc2cc(Nc3cc4n(n3)Cc3nccn3CC4)ncc2c(C)n1 [Compound 105, N-(6-(5-amino-4-methylpyridin-3-yl)-8-methyl-2,7-naphthyridin-3-yl)-5,6-dihydro-11H-imidazo[1,2-a]pyrazolo[1,5-d][1,4]diazepin-8-amine]

Ki [1]: 0.66 nM
SMILES: Cc1c(-c2cc3cc(Nc4cc5n(n4)CC(=O)N(C)CC5)ncc3c(C)n2)cnc2c1NCCO2 [Compound 108, 6-methyl-2-((8-methyl-6-(8-methyl-2,3-dihydro-1H-pyrido[2,3-b][1,4]oxazin-7-yl)-2,7-naphthyridin-3-yl)amino)-5,6-dihydro-4H-pyrazolo[1,5-d][1,4]diazepin-7(8H)-one]

Ki [1]: 0.03 nM
SMILES: Cc1c(-c2cc3cc(Nc4cc5n(n4)CC(=O)N(C)CC54CC4)ncc3c(C)n2)cnc2c1NCCO2 [Compound 109, 6′-methyl-2′-((8-methyl-6-(8-methyl-2,3-dihydro-1H-pyrido[2,3-b][1,4]oxazin-7-yl)-2,7-naphthyridin-3-yl)amino)-5′,6′-dihydrospiro[cyclopropane-1,4′-pyrazolo[1,5-d][1,4]diazepin]-7′(8′H)-one]
